Measured values reported in ChEMBL document CHEMBL1201862, “PubChem BioAssay data set” (2004).
The source made the active and inactive calls.

Experiments:
[1] = cells; assay type: functional, cell-based
[2] = cells; assay type: functional, cell-based; remark: listed apart in the source
[3] = inhibitors of firefly luciferase expression or activity, dose response, H4 neuroglioma cells, luminescence (AID 1990); assay type: functional, cell-based
[4] = Luminescence Cell-Based Dose Response HTS to Identify Inhibitors of 5'UTR Stem-Loop Driven Prion Protein mRNA Translation in H4 Neuroglioblastoma Cells. [Related pubchem assays: 1827 (Project Summary), 1813 (Primary HTS)]; assay type: functional
[5] = inhibitors of HIV Env-driven cell fusion, dose response, cherry-pick (AID 652057); assay type: functional, cell-based
[6] = ZM109 Env clade C HIV-1 fusion inhibitors, dose response, HeLa effector, CEM target cells, luciferase, cherry-pick (AID 652058); assay type: functional, cell-based
[7] = off-target signal loss in HeLa-CEM21 co-culture – HeLa F-luc CTL cells, cherry-picked, counter-screen for HIV-1 Env fusion inhibitor project, dose response (AID 652040); assay type: functional, cell-based;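 note: potency for signal decrease marking cytotoxic or nonspecific inhibition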
[8] = inhibitors of clade B AD8 Env fusion, dose response, cell-based, cherry-pick (AID 652062); assay type: functional;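 note: luciferase signal from cell-cell fusion driven by HIV-1 clade B AD8 Env; potency is for inhibitors of fusion seen as a drop in luminescence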
[9] = target: T1, Histone-lysine N-methyltransferase NSD2 (Homo sapiens, UniProt O96028); assay type: biochemical
T1 sequence (O96028 whole entry): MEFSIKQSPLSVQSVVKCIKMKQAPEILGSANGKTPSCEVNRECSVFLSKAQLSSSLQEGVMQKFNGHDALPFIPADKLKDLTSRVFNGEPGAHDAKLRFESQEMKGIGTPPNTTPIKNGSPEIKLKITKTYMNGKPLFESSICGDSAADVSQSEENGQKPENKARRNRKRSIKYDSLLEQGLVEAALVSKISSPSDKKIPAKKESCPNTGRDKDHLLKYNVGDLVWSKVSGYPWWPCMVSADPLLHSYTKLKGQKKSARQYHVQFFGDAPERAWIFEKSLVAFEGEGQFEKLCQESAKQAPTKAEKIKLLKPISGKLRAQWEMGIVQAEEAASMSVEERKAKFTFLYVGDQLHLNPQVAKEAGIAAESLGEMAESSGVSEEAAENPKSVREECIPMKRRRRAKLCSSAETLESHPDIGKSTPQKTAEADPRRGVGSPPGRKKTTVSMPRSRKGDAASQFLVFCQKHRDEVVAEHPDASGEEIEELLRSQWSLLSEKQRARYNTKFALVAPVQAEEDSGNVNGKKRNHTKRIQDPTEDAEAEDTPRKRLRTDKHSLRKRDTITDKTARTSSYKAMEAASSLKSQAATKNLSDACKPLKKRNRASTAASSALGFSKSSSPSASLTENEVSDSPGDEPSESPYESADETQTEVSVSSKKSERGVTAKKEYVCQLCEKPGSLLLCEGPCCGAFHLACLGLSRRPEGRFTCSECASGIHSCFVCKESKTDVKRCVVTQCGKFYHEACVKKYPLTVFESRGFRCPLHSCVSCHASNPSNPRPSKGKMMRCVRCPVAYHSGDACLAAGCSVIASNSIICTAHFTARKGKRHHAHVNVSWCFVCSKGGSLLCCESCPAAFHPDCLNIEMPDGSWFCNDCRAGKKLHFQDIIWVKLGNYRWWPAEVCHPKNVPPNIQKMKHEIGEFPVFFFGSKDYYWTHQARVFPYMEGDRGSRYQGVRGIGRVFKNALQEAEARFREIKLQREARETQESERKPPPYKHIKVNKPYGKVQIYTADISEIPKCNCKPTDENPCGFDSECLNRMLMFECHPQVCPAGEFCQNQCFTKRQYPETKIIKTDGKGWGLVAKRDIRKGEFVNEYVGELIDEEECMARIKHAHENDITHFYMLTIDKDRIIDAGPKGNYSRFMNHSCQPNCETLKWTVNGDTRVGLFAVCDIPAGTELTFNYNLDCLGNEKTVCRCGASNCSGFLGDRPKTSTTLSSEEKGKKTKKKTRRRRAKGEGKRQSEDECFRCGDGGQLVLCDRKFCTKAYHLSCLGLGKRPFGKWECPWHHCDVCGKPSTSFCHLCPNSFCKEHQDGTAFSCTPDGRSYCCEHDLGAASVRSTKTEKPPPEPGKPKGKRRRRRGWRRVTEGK

[10] = target: Cytochrome P450 3A4 (Homo sapiens, UniProt P08684);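 note: CYP3A4 tested as one member of a cytochrome P450 panel screen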
Sequence of Cytochrome P450 3A4 (P08684 whole entry): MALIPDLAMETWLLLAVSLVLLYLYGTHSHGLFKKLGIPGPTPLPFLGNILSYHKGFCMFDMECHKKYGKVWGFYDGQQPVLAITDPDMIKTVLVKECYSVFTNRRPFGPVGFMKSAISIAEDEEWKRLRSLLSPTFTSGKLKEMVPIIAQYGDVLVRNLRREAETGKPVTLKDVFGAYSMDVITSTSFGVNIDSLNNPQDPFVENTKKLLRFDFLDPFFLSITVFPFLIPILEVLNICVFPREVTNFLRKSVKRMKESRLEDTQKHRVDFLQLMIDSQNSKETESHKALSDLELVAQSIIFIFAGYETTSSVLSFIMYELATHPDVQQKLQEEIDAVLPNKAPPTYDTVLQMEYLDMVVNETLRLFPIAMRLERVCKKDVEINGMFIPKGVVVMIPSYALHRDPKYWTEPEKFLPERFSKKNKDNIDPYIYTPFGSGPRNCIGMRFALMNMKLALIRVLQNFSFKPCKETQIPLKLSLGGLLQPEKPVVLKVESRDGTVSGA

[11] = target: Cytochrome P450 2C9 (Homo sapiens, UniProt P11712)
Sequence of Cytochrome P450 2C9 (P11712 whole entry): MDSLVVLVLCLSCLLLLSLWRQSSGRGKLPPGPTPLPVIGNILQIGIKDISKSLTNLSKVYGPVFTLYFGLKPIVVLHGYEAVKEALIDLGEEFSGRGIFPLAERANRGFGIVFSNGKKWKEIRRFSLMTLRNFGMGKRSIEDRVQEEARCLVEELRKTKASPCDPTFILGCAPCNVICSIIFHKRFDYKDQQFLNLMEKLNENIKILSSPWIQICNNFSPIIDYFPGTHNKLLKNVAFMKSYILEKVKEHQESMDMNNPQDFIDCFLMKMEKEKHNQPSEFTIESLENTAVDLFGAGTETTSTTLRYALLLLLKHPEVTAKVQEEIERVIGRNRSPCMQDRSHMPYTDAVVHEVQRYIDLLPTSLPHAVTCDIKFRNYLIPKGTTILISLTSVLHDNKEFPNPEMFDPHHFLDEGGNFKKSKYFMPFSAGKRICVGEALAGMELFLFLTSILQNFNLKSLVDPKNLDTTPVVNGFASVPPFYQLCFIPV

[12] = microbe, parasite or virus in culture; assay type: functional; conditions: Mycobacterium tuberculosis
[13] = target: T2, Leucine aminopeptidase (Plasmodium falciparum 3D7, UniProt Q8IL11); assay: P. falciparum M17LAP inhibitors, primary screen, biochemical, fluorogenic H-Leu-NHMec substrate, 1536-well (AID 1619); assay type: functional
T2 sequence (Q8IL11 whole entry): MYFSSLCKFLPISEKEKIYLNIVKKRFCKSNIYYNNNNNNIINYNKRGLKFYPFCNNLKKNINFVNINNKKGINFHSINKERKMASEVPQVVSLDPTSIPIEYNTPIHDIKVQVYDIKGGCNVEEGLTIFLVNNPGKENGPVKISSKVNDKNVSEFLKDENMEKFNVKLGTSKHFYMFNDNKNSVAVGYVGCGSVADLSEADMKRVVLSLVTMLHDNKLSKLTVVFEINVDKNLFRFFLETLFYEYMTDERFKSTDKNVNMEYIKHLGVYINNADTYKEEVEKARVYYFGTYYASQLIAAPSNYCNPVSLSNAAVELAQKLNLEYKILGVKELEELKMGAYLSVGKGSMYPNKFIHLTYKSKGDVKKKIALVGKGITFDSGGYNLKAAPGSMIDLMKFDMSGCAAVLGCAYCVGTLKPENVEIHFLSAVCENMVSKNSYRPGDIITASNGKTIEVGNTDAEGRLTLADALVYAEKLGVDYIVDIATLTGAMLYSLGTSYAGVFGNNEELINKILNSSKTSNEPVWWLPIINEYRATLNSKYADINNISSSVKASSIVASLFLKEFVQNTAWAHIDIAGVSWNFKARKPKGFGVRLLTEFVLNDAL

[14] = target: Cytochrome P450 2C19 (Homo sapiens, UniProt P33261); assay: Cytochrome panel assay with activity outcomes. Panel member name: p450-cyp2c19 Compounds with AC50 equal or less than 10 uM are considered active; assay type: functional; conditions: read-out: AC50
Sequence of Cytochrome P450 2C19 (P33261 whole entry): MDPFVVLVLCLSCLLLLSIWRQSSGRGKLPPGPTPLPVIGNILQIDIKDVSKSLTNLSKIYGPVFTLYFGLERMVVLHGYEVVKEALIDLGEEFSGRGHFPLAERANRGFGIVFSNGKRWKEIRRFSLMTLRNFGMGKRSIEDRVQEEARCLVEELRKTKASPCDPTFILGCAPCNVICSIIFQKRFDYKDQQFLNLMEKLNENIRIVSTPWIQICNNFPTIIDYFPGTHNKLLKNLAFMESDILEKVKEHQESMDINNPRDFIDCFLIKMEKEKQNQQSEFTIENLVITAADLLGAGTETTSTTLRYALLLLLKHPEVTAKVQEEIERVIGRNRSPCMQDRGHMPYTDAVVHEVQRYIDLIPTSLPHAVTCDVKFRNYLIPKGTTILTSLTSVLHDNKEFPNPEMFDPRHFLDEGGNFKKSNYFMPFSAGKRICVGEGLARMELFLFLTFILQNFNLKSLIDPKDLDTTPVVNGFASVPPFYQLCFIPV

[15] = system: H9c2; assay: cells; assay type: functional, cell-based; conditions: Rattus norvegicus, H9c2, Myocardium;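 note: confirmatory concentration-response retest of ultra-high-throughput screening hits for modulation of myocardial damage; cell death induced by hydrogen peroxide oxidative stress; compound pretreatment for 60 min then peroxide exposure for 2 h; potency is for protecting the cells against peroxide damage rather than for killing them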
[16] = target: Cytochrome P450 2D6 (Homo sapiens, UniProt P10635);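 note: CYP2D6 member of a cytochrome P450 panel assay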
Sequence of Cytochrome P450 2D6 (P10635 whole entry): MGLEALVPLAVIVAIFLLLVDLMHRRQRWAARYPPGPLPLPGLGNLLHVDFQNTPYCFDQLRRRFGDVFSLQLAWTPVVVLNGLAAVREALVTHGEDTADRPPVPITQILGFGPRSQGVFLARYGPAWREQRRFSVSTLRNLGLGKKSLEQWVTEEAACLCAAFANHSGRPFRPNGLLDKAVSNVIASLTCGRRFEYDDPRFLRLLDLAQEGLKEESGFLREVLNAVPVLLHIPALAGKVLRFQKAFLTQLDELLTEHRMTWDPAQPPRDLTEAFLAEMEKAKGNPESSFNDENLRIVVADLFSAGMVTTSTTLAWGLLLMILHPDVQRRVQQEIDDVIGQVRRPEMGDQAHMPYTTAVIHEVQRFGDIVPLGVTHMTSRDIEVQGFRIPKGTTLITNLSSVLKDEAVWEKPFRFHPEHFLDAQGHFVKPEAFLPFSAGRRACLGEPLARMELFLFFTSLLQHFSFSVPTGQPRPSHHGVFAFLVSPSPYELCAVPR

[17] = target: Paired box protein Pax-8 (Homo sapiens, UniProt Q06710); assay: inhibitors of PAX8-driven TPO luciferase reporter, dose response, RMG-I cells, cherry-pick (AID 687027); assay type: functional, cell-based;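 note: luciferase reporter driven by Pax8 target thyroperoxidase promoter measured by SteadyGlo luminescence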
Sequence of Paired box protein Pax-8 (Q06710 whole entry): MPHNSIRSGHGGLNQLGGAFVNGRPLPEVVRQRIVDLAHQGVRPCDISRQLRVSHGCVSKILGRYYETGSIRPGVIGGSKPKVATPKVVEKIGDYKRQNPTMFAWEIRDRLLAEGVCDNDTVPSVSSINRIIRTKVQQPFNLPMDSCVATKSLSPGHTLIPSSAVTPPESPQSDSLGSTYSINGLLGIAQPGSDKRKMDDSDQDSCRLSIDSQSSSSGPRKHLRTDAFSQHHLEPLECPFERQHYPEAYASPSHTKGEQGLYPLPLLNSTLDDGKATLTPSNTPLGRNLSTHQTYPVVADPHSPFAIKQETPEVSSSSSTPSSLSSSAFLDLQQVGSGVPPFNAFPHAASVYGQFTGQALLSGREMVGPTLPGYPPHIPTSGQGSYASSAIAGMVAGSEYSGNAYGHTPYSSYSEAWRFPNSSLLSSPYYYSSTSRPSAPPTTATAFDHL

[18] = NIH:OVCAR-3 ovarian cancer cell cytotoxicity, dose response, PAX8 inhibitor project, plate reader, dry powder samples (AID 743044); assay type: functional, cell-based
[19] = P. falciparum Dd2 growth inhibitors, dose response, SYBR Green, cherry-picked samples (AID 1159567); assay type: functional, cell-based

For `Cc1[nH]c2ccccc2c1CN1CCc2ccccc2C1`, the IC50 [1] was > 29.9 µM (inactive) and the EC50 [2] was > 29.9 µM (inactive).

For `COc1ccc(NC(=O)c2cc(CC(C)C)nc3ccccc23)cc1`, the EC50 [3] was > 120 µM (not active), the EC50 [4] was > 120 µM (not active) and the AC50 [5] was 0.655 µM (active). For the same compound, the AC50 [6] was < 0.26 µM (active), the AC50 [7] was 1.06 µM (active) and the AC50 [8] was 1.11 µM (active).

With `CC(NC1=NCCS1)c1ccccc1` (configuration not stated) the IC50 [1] was > 29.9 µM (inactive) and the EC50 [2] was > 29.9 µM (inactive).

With `CNCc1ccccc1Sc1ccc(OC)c(OC)c1` the AC50 [9] was > 20 µM (inactive).

With `COc1ccc(Oc2ncc3nc(-c4cn(C)c5ccccc45)c(=O)n(C)c3n2)cc1` the AC50 [10] was 15.8 µM (inconclusive) and the AC50 [11] was “inconclusive”.

In the case of `COc1ccc(SC[C@H](Cc2ccccc2)N2CCN(CCc3ccccc3)CCC2=O)cc1`, the CC50 [12] is reported as > 40 µM (active).

In the case of `CC1(C)Cc2c(C#N)c(N3CCN(C(=O)c4ccccc4)CC3)nc(Cc3ccccc3)c2CO1`, the CC50 [12] is reported as 39 µM (active).

In the case of `Cc1noc(NS(=O)(=O)c2ccc(NC(=O)CSc3nc4ccccc4s3)cc2)c1C`, the IC50 [13] is reported as 15.3 µM (active).

With `CCCn1c2c(c(O)c(C(=O)NCCCN(CC)CC)c1=O)CCCC2` the AC50 [9] was > 20 µM (inactive).

With `CC(=O)NC1C(c2nc3ccccc3s2)=C(c2ccccc2)C(=O)N1c1ccc(C)cc1` (configuration not stated) the CC50 [12] was > 40 µM (active).

In the case of `COc1ccccc1CNc1cc(-c2cccc(NS(C)(=O)=O)c2)ncn1`, the AC50 [14] is reported as 20 µM (inconclusive) and the AC50 [11] is reported as “inconclusive”.

For `CCC(=O)Nc1cccc(-c2nnc(-c3cccc(NC(=O)CC)c3)o2)c1`, the IC50 [15] was > 79 µM (inactive), the AC50 [16] was 17.8 µM (inconclusive) and the AC50 [11] was “inconclusive”.

For `Cc1ccc(OCC(=O)Nc2ccc(O)c(C(=O)O)c2)cc1C`, the IC50 [13] was 19.5 µM (active).

For `CSc1cccc(CNC(=O)C2CCC(=O)N(Cc3cccc(C(F)(F)F)c3)C2)c1` (configuration not stated), the CC50 [12] was > 40 µM (active).

For `Cc1nc2ncnn2c(N2CCCC(C(=O)Nc3ccc4c(c3)CCC4)C2)c1C` (configuration not stated), the AC50 [5] was 3.21 µM (active), the AC50 [6] was 17.1 µM (active) and the AC50 [7] was 3.66 µM (active). The AC50 [8] was 8.01 µM (active).

In the case of `O=S(=O)(c1ccc(Cl)cc1)N1CCCN(c2nc3ccc(Cl)cc3s2)CC1`, the AC50 [5] is reported as 3.94 µM (active), the AC50 [6] is reported as 0.922 µM (active) and the AC50 [7] is reported as 4.14 µM (active). For the same compound, the AC50 [8] was 5.18 µM (active).

With `CC1(C)[N+]([O-])=CC(c2cccs2)=[N+]1[O-]` the IC50 [13] was 22.7 µM (active).

In the case of `CN1C(C(=O)NCCc2cccs2)CC2Cn3c(nc4ccccc43)C21` (configuration not stated), the IC50 [1] is reported as > 29.9 µM (inactive) and the EC50 [2] is reported as > 29.9 µM (inactive).

With `C[C@@H]1CN([C@H](C)CO)C(=O)c2cc(NS(=O)(=O)c3cccs3)ccc2O[C@@H](C)CCCCO[C@@H]1CN(C)Cc1ccc(C(F)(F)F)cc1` the AC50 [17] was 4.55 µM (active) and the AC50 [18] was 58.7 µM (active).

With `COc1ccc(/N=C(/C2=C(O)CCC2)C2CCCCC2)cc1` the CC50 [12] was > 40 µM (active).

With `C/C=C/c1ccc2n(c1=O)C[C@H]1[C@H](CO)[C@@H](C(=O)N3CCC(Cc4ccccc4)CC3)N(CCC)[C@@H]21.C/C=C\c1ccc2n(c1=O)C[C@H]1[C@H](CO)[C@@H](C(=O)N3CCC(Cc4ccccc4)CC3)N(CCC)[C@@H]21` the AC50 [19] was 15.8 µM (active).

With `C[C@@H]1CN([C@@H](C)CO)C(=O)c2cc(C#Cc3ccccc3)cnc2O[C@H]1CN(C)C(=O)CN(C)C` the AC50 [19] was 5.45 µM (active).

For `C=CCC1C=C(Cc2ccccc2)CC(CC=C)N1` (configuration not stated), the AC50 [9] was > 20 µM (inactive).
